Measured values published in patent publication US20050112551A1, “Dual assay for evaluating activity and cytotoxicity of compounds in the same population of cells” (AGOURON PHARMACEUTICALS, INC., priority 2003, published 2005).
Read-outs that look alike come from different tables or passages of the source.

What was measured:
[1] = system: HIV-1 RF infection of CEM-SS cells; experiment: HIV-1 RF cell protection assay (XTT dye reduction), antiviral activity; type: cell-based; conditions: for HIV-1 RF Cell Protection Assay TI (therapeutic index, CC50/EC50): CC50 divided by EC50, cell protection assay; for EC50: read-out: HIV-1 RF Cell Protection Assay EC50
[2] = HIV-1 RF cell protection assay (XTT dye reduction), cytotoxicity in uninfected cells; type: cell-based; conditions: human
Procedure: (§1) The antiviral activities of compounds were also evaluated in cell protection assays by the XTT dye reduction method. CEM-SS subject cells were infected with HIV-1 RF virus at an moi of 0.025 to 0.819 or mock infected with medium only and added at 2×10^4 cells per well into 96-well plates containing half-log dilutions of test compounds. Six days later, 50 μl of XTT (1 mg/ml XTT tetrazolium, […] phenazine methosulfate) was added to the wells and the plate was reincubated for four hours. Viability, as determined by the amount of XTT formazan produced, was quantified spectrophotometrically by absorbance at 450 nm.
(§2) Data from cell protection assays were expressed as the percent of formazan produced in compound-treated cells compared to formazan produced in wells of uninfected, compound-free cells.

[3] = system: VSV/HIVLuc infection of HeLa HRLuc cells
in vitro = conditions: human
[4] = system: VSV/HIVLuc infection of HeLa HRLuc cells; experiment: microbe, parasite or virus in culture; conditions: Vesicular stomatitis virus, 72 h, read-out: Dual Reporter Assay EC50
CEM-SS cells = experiment: HIV-1 RF cell protection assay (XTT dye reduction), cytotoxicity in uninfected cells; type: cell-based; conditions: XTT dye reduction, uninfected CEM-SS cells, six days; mean of 2 to 3 experiments
Procedure: as §1, §2

HeLa HRLuc cells = conditions: read-out: Dual Reporter Assay CC50; Renilla luciferase reporter in infected HeLa HRLuc cells, ~72 hours; mean of 2 to 3 experiments
[5] = Human immunodeficiency virus 1, 144 h, XTT dye reduction six days after infection of CEM-SS cells with HIV-1 RF, mean of 2 to 3 experiments
[6] = uninfected (mock-infected) CEM-SS cells, XTT dye reduction, uninfected CEM-SS cells, six days, mean of 2 to 3 experiments, read-out: HIV-1 RF Cell Protection Assay CC50
[7] = XTT dye reduction, uninfected CEM-SS cells, six days, mean of 2 to 3 experiments, read-out: HIV-1 RF Cell Protection Assay CC50

SMILES	HIV-1 RF Cell Protection Assay TI (therapeutic index, CC50/EC50) [1]	EC50 [1, 5] [µM]	CC50 at 6 days [2, 6] [µM]	Dual Reporter Assay TI (therapeutic index, CC50/EC50) [3]	CC50 (in vitro) [µM]	EC50 [4] [µM]	CC50 at 6 days [2, 7] [µM]	CC50 at 6 days [2] [µM]	EC50 ([1]; XTT dye reduction six days after infection of CEM-SS cells with HIV-1 RF, mean of 2 to 3 experiments) [µM]	CC50 (CEM-SS cells) [µM]	EC50 ([3]; read-out: Dual Reporter Assay EC50) [µM]	CC50 (HeLa HRLuc cells) [µM]	EC50 ([1]; Human immunodeficiency virus 1, CEM-SS, 144 h) [µM]
Cc1cn([C@H]2C[C@H](N=[N+]=[N-])[C@@H](CO)O2)c(=O)[nH]c1=O [AZT, 3′-Azido-3′-deoxythymidine]	>40,000	0.008	> 320	>11,034	> 320	0.029							
CC(C)c1nc(COC(N)=O)n(Cc2ccncc2)c1Sc1cc(Cl)cc(Cl)c1 [CPV, Capravirine]	47,214	0.0014		24,266	36.4	0.0015	66.1						
Nc1ccn([C@@H]2CS[C@H](CO)O2)c(=O)n1 [Compound 3TC, lamivudine]	>15,384	0.065		>229	> 32	0.14		> 1000					
O=C(O)C(=O)CC(=O)c1cccn1Cc1ccc(F)cc1 [Compound L-731988]	55.6			92.2					4.5	250	1.8	166	
CC(C)Nc1cccnc1N1CCN(C(=O)c2cc3cc(NS(C)(=O)=O)ccc3[nH]2)CC1 [DLV, delavirdine]	6,961	0.013		>5000	> 100	0.02	90.5						
O=C1Nc2ccc(Cl)cc2[C@@](C#CC2CC2)(C(F)(F)F)O1 [EFV, efavirenz]	38,266	0.0015		179,250	71.7	0.0004	57.4						
Cc1ccnc2c1NC(=O)c1cccnc1N2C1CC1 [NVP, Nevirapine]	>30,303	0.033		>1032	> 32	0.031	> 1000						
Cc1cn([C@H]2C=C[C@@H](CO)O2)c(=O)[nH]c1=O [d4T, stavudine]	>64	0.51		>119	> 32	0.27	> 32						
O=c1[nH]cnc2c1ncn2[C@H]1CC[C@@H](CO)O1 [ddl, didanosine]			> 32		> 32	0.59							12.9
